Consider eleven compounds from PubChem BioAssay (NCI).

Common to all, as to test: DTP human tumour cell line panel, 48 h
The subject of assay [1] is UACC-257 melanoma.
Assay [2] relates to NCI-H522 lung.
In assay [3] the test system is A498 renal.
In assay [4] the test system is MALME-3M melanoma.
The subject of assay [5] is ACHN renal.
In assay [6] the test system is OVCAR-8 ovarian.
For assay [7], the system named is OVCAR-5 ovarian.
Assay [8] deals with MOLT-4 leukemia.
Assay [9] deals with HT29 colon.
Assay [10] concerns M14 melanoma.

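Growth conditions: 96-well plates. Treatment: test compound, 48 hours, 5 concentrations. Analysis: linear interpolation between bracketing concentrations; unreached endpoints set to highest concentration. GI50 = concentration required for 50% inhibition of growth. Definition used: TGI = concentration required for complete inhibition of growth.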 Where only a bound is given, the exact number is not on record here.

As a reminder, the TGI is the concentration giving total growth inhibition. In the case of `CCOc1cccc2sc(N)nc12`, the TGI in assay [1], in assay [2], in [3], in [4], in [5] and in assay [6] was > 100 µM each time. Also, the TGI in assay [7], in assay [8], in assay [9] and in assay [10] was > 100 µM each time.

On to `COC(=O)CCC(=O)Nc1cccc(C(F)(F)F)c1`, for which the TGI in assay [1], in [2], in assay [3], in assay [4], in assay [5] and in [6] was > 100 µM in each case. Besides, the TGI in [7], in [8], in assay [9] and in [10] was > 100 µM in each case.

As to `Nc1nc(=O)c2[nH]cnc2n1O`, the TGI in assay [1], in assay [2], in [3], in assay [4], in assay [5] and in assay [6] was > 100 µM throughout. Also, the TGI in assay [7], in [8], in [9] and in assay [10] was > 100 µM throughout.

What is called GI50 is the concentration at which growth is held to half of that of the control. Turning to `OCCNC(=S)Nc1ccc(-c2nc(N3C[C@H]4CC[C@@H](C3)O4)c3cccn3n2)cc1`, the GI50 in assay [1] was 0.0354 µM; in assay [2] it was 0.029 µM; in [3], < 0.01 µM; in assay [4] it was < 0.01 µM; in [5] it was 0.0502 µM; in assay [6], 0.173 µM. For the same compound, the GI50 was 0.0379 µM in assay [7], 0.09 µM in assay [8], 0.117 µM in assay [9] and 0.0654 µM in assay [10]. The TGI in assay [1] turned out to be 0.467 µM; in assay [2] it was 3.37 µM; in assay [3], 0.0307 µM; in [4] it was 0.055 µM; in [5], 1.86 µM; in assay [6], 3.16 µM. Further, the TGI is 15.3 µM in assay [7], 17.1 µM in assay [8], 22.5 µM in [9] and 5.93 µM in [10].

On to `COc1cccc(-c2cc(=O)c3cc(C)c(C)c(C(=O)O)c3o2)c1`, for which the TGI in assay [1], in [2], in assay [3], in assay [4], in assay [5] and in assay [6] was > 100 µM in each case. For the same compound, the TGI in [7], in assay [8], in assay [9] and in assay [10] was > 100 µM each time.

Consider `COC1=CC(=O)c2c(O)c3c(c(O)c2C1=O)OC1(Oc2c(cc4cc(C)oc(=O)c4c2O)CC1O)C3O` (centres undefined), for which the TGI in [1] was > 100 µM; in [2], 54.6 µM; in assay [3], > 100 µM; in assay [4], 10.3 µM; in assay [5], > 100 µM; in [6], > 100 µM. The TGI in assay [7], in [8], in assay [9] and in [10] was > 100 µM throughout.

As to `CC(C)(C)n1nc(C2CC2)cc1NC(=O)Nc1ccc(Cl)cc1`, the TGI in assay [1], in assay [2], in [3], in [4], in assay [5] and in [6] was > 100 µM in each case. Also, the TGI in assay [7], in [8], in assay [9] and in assay [10] was > 100 µM throughout.

`Cc1ccccc1NC(=O)N/C(N)=N/c1nc(C)c(C)s1`: the GI50 was > 100 µM in assay [1]; 0.0478 µM in [2]; 0.125 µM in assay [3]; 3.54 µM in assay [4]; 0.7 µM in assay [5]; 0.512 µM in assay [6]. Besides, the GI50 in assay [7] is 0.912 µM; in [8] it was 0.467 µM; in assay [9] it was 0.104 µM; in [10] it was 0.121 µM. The TGI is > 100 µM in assay [1]; > 42.5 µM in assay [2]; 0.803 µM in [3]; > 100 µM in [4]; > 57 µM in assay [5]; > 79.6 µM in assay [6]. The TGI in [7] is > 100 µM; in assay [8], > 100 µM; in assay [9], > 33 µM; in assay [10], > 100 µM.

As for `CCOC(=O)C1Nc2ccc([N+](=O)[O-])cc2[C@H]2OCC[C@@H]12` (some centres undefined), the TGI in assay [1], in assay [2], in [3], in [4], in [5] and in assay [6] was > 100 µM each time. In addition, the TGI in [7], in assay [8], in assay [9] and in [10] was > 100 µM in each case.

For the compound `C[C@@]1([C@H](OC(=O)c2cccc3ccccc23)C(N)=O)CO1`, the GI50 in assay [1] was 4.65 µM; in [3], 16.2 µM; in assay [4], 3.18 µM; in [5] it was 0.396 µM; in [6], 0.594 µM; in assay [7], 3.95 µM. For the same compound, the values for the GI50 in [8], in assay [9] and in assay [10] were 0.187 µM, 1.05 µM and 1.36 µM, respectively. For the same compound, the TGI in [1] is > 49 µM; in assay [2], 6 µM; in [3], 34 µM; in assay [4] it was 11.2 µM; in [5], 2.2 µM; in assay [6] it was 22.7 µM. Further, the TGI is 24.9 µM in assay [7], > 100 µM in assay [8], > 24 µM in assay [9] and 5.31 µM in assay [10].

For the compound `CCC1CCC2C3CC=C4CC(OC(C)=O)C(N)CC4(C)C3CCC12C` (centres undefined), the concentration for total growth inhibition (TGI) in assay [1] was found to be 4.55 µM; in assay [2], 6.67 µM; in assay [3] it was 9.63 µM; in assay [4] it was 8.33 µM; in assay [5], 17.6 µM; in assay [6], 6.75 µM. The total growth inhibition concentration (TGI) in assay [7] was 14.1 µM; in assay [8] it was 8.01 µM; in assay [9], 6.32 µM; in assay [10], 3.6 µM.
